Assay [1] relates to Erysiphe graminis f. sp. tritici. Kind of assay: antifungal effect on Erysiphe graminis (powdery mildew on wheat plants, glasshouse). In kind it is in vivo. The following applies: Blumeria graminis; for inhibition at 50 µg/mL: 50 μg/ml; for inhibition at 100 µg/mL: 100 μg/ml; for inhibition at 150 µg/mL: 150 μg/ml; for inhibition at 200 µg/mL: 200 μg/ml; for inhibition at 400 µg/mL: 400 μg/ml; for inhibition at 25 µg/mL: 25 μg/ml. As for the experimental part:
The compounds of the general Formula (I) are particularly effective against powdery mildew. In Table IV the activity of some compounds of the general […] against Erysiphe graminis f. sp. tritici strain are disclosed.
The following test method is used: Glasshouse conditions: temperature 20° C.; relative humidity 80%; strength of illumination 6000 lux. The test plants MV-9 Automn wheat are cultivated in pots diameter 20 cm in a 1:1 mixture of sand and perlite. The average number of plants per pot amounts to 180, the height of the plants is 6-7 cm. About 8 ml of the aqueous suspension of the test compound is applied onto the plants with the aid of a sprayer.
The rate of infectedness is determined after 8 days. Activity is calculated from the percental inhibition values. As control commercial products Fundazol 50 WP and Karathene LC 50 are used.

Assay [2] is described as follows: hot (56° C.) plate test on mice (analgesic effect). The following applies: Mus musculus, po, 1 h, read-out: Lengthening of reaction time in %; for change in vivo at 25 mg/kg: 25 mg/kg p.o.; for change in vivo at 50 mg/kg: 50 mg/kg p.o.; for change in vivo at 100 mg/kg: 100 mg/kg p.o. In kind it is in vivo, male and female CFLP strain mice. As for the experimental part: The analgesic effect of the compounds of the present invention is tested according to the hot (56° C.) plate test on male and female CFLP strain mice weighing 18-22 g. The point of time of the appearence of the deterring reaction Abwehrreaktion is determined and related to the latent time measured on the control group Woolfe and McDonald 1944. At least 10 animals are used per dose. […] The test is carried out on separated male Wistar rats weighing 180-210 g and fasted for 16 hours. The test compounds are suspended in 1% carboxy methyl cellulose and administered orally in a dose of 10 ml/kg.

Assay [3] can be described thus: adjuvant induced arthritis in rats, method of Newbold. In kind it is in vivo, male Wistar rats. Particulars: Rattus norvegicus, po, 504 h, 25 mg/kg p.o. daily for two weeks, read-out: Percental inhibition of the growth of paw volume, on the 21st day. As for the experimental part:
According to the method of Newbold 0.1 ml of Freund complet adjuvant (Difco Lab. Mich. […] The volume of the hind paws is measured before and 21 days after the administration of the adjuvant with the aid of a mercury plethysmometer. […] In Table II the "percental inhibition of the growth of paw volume" relates to the value determined on the 21st day. […] The tests show furthermore that the compounds of the present invention are active not only in healing morphological deformations but effect in a desirable and useful manner the functional condition and fitness of the feet, moreover the general physical state and condition of the animals, too.

A short description of assay [4]: carrageenin edema inhibition in rats (antiphlogistic effect), Winter method. In kind it is in vivo, male Wistar rats. Particulars: Rattus norvegicus, po, rats; for inhibition in vivo at 12.5 mg/kg: 12.5 mg/kg p.o.; for inhibition in vivo at 12.5 mg/kg / inhibition in vivo at 25 mg/kg / inhibition in vivo at 100 mg/kg / inhibition in vivo at 50 mg/kg: read-out: Percental inhibition of paw volume; for inhibition in vivo at 25 mg/kg: 25 mg/kg p.o.; for inhibition in vivo at 100 mg/kg: 100 mg/kg p.o.; for ED50: carrageenin edema, p.o., regression analysis, read-out: ED50; for inhibition in vivo at 50 mg/kg: 50 mg/kg p.o. As for the experimental part: Thus the orally administered compounds of the general Formula (I) efficiently reduce acute inflammatory processes. According to the method of Winter [Proc. Soc. Exp. Biol. Med. 111, 544 (1962)] carrageenin edema is induced and evaluated on male Wistar rats fasted for 16 hours body weight 160-180 g. Percental inhibition is calculated from the average edema values of the groups treated with the test compound on the one hand and with carrier carboxy methyl cellulose, CMC; control on the other. ED50 values are determined by means of regression analysis of the inhibition values. The test compounds are administered through a stomach canule in the form of a 1% carboxy methyl cellulose (CMC) suspension, one hour before introducing the carrageenin injection.
A general note: In the carrageenan paw model, swelling and tenderness develop within hours.

The results in this text go back to US5104884A, “Triazolyl quinoline derivatives” (Alkaloida Vegyeszeti Gyar, priority 1985, dated 1992).

By inhibition is commonly meant the change of the read-out against control, counted positive when it falls. Read a low inhibition as a weak effect. Turning to `Clc1ccc2c(-n3cncn3)ccnc2c1` [Compound 1, 4-(1H-1,2,4-triazole-1-yl)-7-chloro-quinoline], at 37.5 µg/mL the inhibition in assay [1] (37.5 μg/ml) was 50.6%. Besides, in assay [1], the inhibition at 50 µg/mL was determined as 72.6%, the inhibition at 100 µg/mL is 85.3%, the inhibition at 150 µg/mL is 36.8% and the inhibition at 200 µg/mL turned out to be 90.1%. Further, the inhibition at 400 µg/mL in assay [1] turned out to be 99.6%. In assay [1] (75 μg/ml), this compound displayed an inhibition at 75 µg/mL of 83%.
In assay [1], `Cc1cc(-n2cncn2)c2cccc(C)c2n1` [Compound 6, 4-(1H-1,2,4-triazole-1-yl)-2,8-dimethyl-quinoline] showed an inhibition at 25 µg/mL of 49.2%, an inhibition at 50 µg/mL of 71.6%, an inhibition at 100 µg/mL of 85.1% and an inhibition at 200 µg/mL of 89.5%. The compound further came in with an inhibition at 400 µg/mL in assay [1] of 99.4%.
In assay [1], `COc1cccc2c(-n3cncn3)cc(C)nc12` [Compound 8] displayed an inhibition at 25 µg/mL of 42.1%, an inhibition at 50 µg/mL of 70.9%, an inhibition at 100 µg/mL of 82% and an inhibition at 150 µg/mL of 84.1%. In assay [1], this compound returned an inhibition at 200 µg/mL of 91.9% and an inhibition at 400 µg/mL of 98.8%.
For the compound `Cc1cc(-n2cncn2)c2cccc(Cl)c2n1` [Compound 10], in assay [1], the inhibition at 25 µg/mL was determined as 20.3%, the inhibition at 50 µg/mL was found to be 42.8%, testing at 100 µg/mL gave an inhibition of 76.4% and testing at 200 µg/mL gave an inhibition of 92.7%. Further, in assay [1], the inhibition at 400 µg/mL stood at 90.1%.
In the case of `Cc1cc(-n2cncn2)c2ccc(Cl)c(Cl)c2n1` [Compound 22], in assay [1], testing at 25 µg/mL gave an inhibition of 40.8%, 50 µg/mL produced 67.7% inhibition, the inhibition at 100 µg/mL was found to be 79.8% and testing at 200 µg/mL gave an inhibition of 93%. In assay [1], this compound yielded an inhibition at 400 µg/mL of 96.9%.
Regarding `Cc1cc(Sc2nc[nH]n2)c2cccc(Cl)c2n1` [Compound 46], in assay [2], the change in vivo at 25 mg/kg was found to be 7%, the change in vivo at 50 mg/kg was found to be 18% and the change in vivo at 100 mg/kg was 38%. In addition, the inhibition in vivo at 25 mg/kg in assay [3] turned out to be 28.1%.
For orientation: ED50 means the midpoint of the dose-response relation. In the case of `Cc1nc(Sc2ccnc3cc(Cl)ccc23)n[nH]1` [Compound 61], in assay [2], the change in vivo at 25 mg/kg is 20%, the change in vivo at 50 mg/kg came out at 22% and the change in vivo at 100 mg/kg is 26%. In assay [4], the inhibition in vivo at 12.5 mg/kg came out at 29%, the inhibition in vivo at 25 mg/kg was found to be 37%, the inhibition in vivo at 100 mg/kg was 58% and the ED50 came to 60.9 mg/kg. In assay [3], the inhibition in vivo at 25 mg/kg stood at 38.2%.
For the compound `Cc1cc(Sc2n[nH]c(C)n2)c2ccccc2n1` [Compound 62], in assay [2] (12.5 mg/kg p.o.), the change in vivo at 12.5 mg/kg was 17%. In addition, in assay [2], the change in vivo at 25 mg/kg stood at 19%, the change in vivo at 50 mg/kg was determined as 30% and the change in vivo at 100 mg/kg came out at 38%. Besides, in assay [4], the inhibition in vivo at 12.5 mg/kg came out at 18%, the inhibition in vivo at 25 mg/kg is 51%, the inhibition in vivo at 50 mg/kg amounted to 59% and the inhibition in vivo at 100 mg/kg was determined as 69%. Further, the ED50 in assay [4] worked out at 38.4 mg/kg. Moreover, the inhibition in vivo at 25 mg/kg in assay [3] turned out to be 40.3%.
Take `Cc1cc(Sc2n[nH]c(C)n2)c2cccc(C(F)(F)F)c2n1` [Compound 67]: the inhibition in vivo at 25 mg/kg in assay [3] stood at 32.8%.
On to `CCc1nc(Sc2cc(C)nc3ccc(C)cc23)n[nH]1` [Compound 74], for which, in assay [2], the change in vivo at 25 mg/kg was found to be 19%, the change in vivo at 50 mg/kg was determined as 26% and the change in vivo at 100 mg/kg was found to be 43%. In assay [4], the inhibition in vivo at 12.5 mg/kg was determined as 26%, the inhibition in vivo at 25 mg/kg is 55%, the inhibition in vivo at 50 mg/kg was 69% and the ED50 was 25.7 mg/kg.
Consider `Cc1ccc2cc(C)c(-n3cncn3)nc2c1` [Compound 85], for which, in assay [3], the inhibition in vivo at 25 mg/kg was 28.4%.
Take `Cc1ccc2cc(C)c(Sc3nc[nH]n3)nc2c1` [Compound 109]: the inhibition in vivo at 25 mg/kg in assay [3] was 36.7%.
On to `CCc1nc(Sc2nc3ccc(C)cc3cc2C)n[nH]1` [Compound 138], for which, in assay [2], the change in vivo at 25 mg/kg was found to be 25%, the change in vivo at 50 mg/kg was found to be 37% and the change in vivo at 100 mg/kg came out at 82%. Moreover, the inhibition in vivo at 25 mg/kg in assay [3] was 35.2%.
